Key:
[1] = biological target: T1, alpha2A adrenergic receptor (Alpha2A) (Homo sapiens, UniProt P08913); assay: Competitive radioligand binding assay, Alpha2A; settings: compound at 10 μM; radioligand yohimbine; cell membrane fractions; read-out: % Inhibition of Binding at Each Transporter or Receptor Target, Alpha2A
T1 sequence (P08913 1-465): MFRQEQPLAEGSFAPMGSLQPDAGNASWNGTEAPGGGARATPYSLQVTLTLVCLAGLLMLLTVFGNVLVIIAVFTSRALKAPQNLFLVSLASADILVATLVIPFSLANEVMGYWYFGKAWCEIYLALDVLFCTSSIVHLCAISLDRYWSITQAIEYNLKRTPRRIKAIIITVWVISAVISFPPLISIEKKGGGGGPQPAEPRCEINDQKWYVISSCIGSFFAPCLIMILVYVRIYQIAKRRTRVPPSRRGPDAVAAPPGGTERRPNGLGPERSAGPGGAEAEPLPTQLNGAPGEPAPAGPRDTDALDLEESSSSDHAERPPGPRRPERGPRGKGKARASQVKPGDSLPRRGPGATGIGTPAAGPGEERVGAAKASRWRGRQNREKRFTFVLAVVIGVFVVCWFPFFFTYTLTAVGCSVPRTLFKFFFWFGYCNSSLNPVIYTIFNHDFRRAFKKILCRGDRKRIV
Procedure: (§1) Compound 2 was tested for pharmacological activity in comparison to APC. Eight binding assays were carried out to provide a binding profile for each compound, including binding to dopamine transporter (DAT), norepinephrine transporter (NET), serotonin (5-HT) transporter (SERT), alpha2A adrenergic receptor (Alpha2A), alpha2C adrenergic receptor (Alpha2C), D2S dopamine receptor (D2S), D2L, dopamine receptor (D2L), and vesicular monoamine transporter (VMAT2). Competitive binding assays using a radiolabeled ligand were carried out with each compound at 10 μM. The radioligand for each target was as follows: DAT—BTCP, NET—protriptyline, SERT—imipramine Alpha2A—yohimbine, Alpha2C—yohimbine, D2S—7-OH-DPAT, D2L—butaclamol, VMAT2—tetrabenazine. The source of the receptors and transporters were prepared cell membrane fractions.

[2] = biological target: dopamine transporter (DAT) (Homo sapiens, UniProt Q01959); assay: Competitive radioligand binding assay, DAT; settings: compound at 10 μM; radioligand BTCP; cell membrane fractions; read-out: % Inhibition of Binding at Each Transporter or Receptor Target, DAT
Chain of dopamine transporter (DAT) (Q01959 whole entry, species assumed): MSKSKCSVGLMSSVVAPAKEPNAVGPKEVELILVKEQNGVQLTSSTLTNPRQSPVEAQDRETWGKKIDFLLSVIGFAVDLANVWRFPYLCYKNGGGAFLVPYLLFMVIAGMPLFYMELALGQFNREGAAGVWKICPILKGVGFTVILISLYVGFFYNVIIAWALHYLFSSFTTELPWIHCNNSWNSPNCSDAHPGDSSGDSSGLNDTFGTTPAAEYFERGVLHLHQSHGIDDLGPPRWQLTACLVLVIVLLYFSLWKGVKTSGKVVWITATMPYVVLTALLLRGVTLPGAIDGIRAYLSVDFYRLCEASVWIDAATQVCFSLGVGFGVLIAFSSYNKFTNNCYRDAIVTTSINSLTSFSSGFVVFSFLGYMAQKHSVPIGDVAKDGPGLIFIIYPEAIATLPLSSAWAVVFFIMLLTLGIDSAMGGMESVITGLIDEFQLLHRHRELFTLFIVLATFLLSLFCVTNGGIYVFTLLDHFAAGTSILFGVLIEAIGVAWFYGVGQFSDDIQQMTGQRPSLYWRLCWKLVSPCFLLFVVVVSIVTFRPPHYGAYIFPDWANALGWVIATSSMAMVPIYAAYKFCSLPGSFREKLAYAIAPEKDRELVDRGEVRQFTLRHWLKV
Procedure: as §1

[3] = biological target: norepinephrine transporter (NET) (Homo sapiens, UniProt P23975); assay: Competitive radioligand binding assay, NET; settings: compound at 10 μM; radioligand protriptyline; cell membrane fractions; read-out: % Inhibition of Binding at Each Transporter or Receptor Target, NET
Chain of norepinephrine transporter (NET) (P23975 whole entry, species assumed): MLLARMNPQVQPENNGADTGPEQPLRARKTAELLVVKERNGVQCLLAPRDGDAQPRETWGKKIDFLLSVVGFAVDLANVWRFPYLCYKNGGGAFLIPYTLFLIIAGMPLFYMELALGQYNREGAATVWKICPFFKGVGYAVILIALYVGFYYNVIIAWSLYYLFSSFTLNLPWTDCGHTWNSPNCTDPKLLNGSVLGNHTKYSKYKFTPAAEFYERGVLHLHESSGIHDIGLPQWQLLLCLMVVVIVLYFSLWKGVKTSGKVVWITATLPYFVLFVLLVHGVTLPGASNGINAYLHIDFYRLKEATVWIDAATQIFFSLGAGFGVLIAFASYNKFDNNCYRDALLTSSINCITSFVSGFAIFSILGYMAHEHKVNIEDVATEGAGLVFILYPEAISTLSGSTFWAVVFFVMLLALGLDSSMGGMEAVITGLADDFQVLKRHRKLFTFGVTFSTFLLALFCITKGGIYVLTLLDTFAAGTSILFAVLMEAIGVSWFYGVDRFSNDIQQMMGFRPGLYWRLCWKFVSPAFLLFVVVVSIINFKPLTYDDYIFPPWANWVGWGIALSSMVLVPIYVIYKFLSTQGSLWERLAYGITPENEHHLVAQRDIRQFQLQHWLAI
Procedure: as §1

[4] = biological target: D2S dopamine receptor (D2S) (Homo sapiens, UniProt P14416); assay: Competitive radioligand binding assay, D2S; settings: compound at 10 μM; radioligand 7-OH-DPAT; cell membrane fractions; read-out: % Inhibition of Binding at Each Transporter or Receptor Target, D2S
Chain of D2S dopamine receptor (D2S) (P14416 1-414 isoform P14416-2): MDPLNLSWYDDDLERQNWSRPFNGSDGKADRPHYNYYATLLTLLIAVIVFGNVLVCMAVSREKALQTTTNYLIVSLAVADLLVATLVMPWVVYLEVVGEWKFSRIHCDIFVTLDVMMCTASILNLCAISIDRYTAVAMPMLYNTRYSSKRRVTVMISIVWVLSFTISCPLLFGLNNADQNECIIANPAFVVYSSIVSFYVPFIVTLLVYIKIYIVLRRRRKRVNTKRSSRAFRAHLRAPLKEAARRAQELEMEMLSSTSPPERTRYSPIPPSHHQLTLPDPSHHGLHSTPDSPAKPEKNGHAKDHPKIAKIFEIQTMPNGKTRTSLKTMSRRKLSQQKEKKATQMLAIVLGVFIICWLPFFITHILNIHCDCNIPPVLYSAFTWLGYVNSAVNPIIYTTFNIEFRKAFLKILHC
Procedure: as §1

[5] = biological target: serotonin (5-HT) transporter (SERT) (Homo sapiens, UniProt P31645); assay: Competitive radioligand binding assay, SERT; settings: compound at 10 μM; radioligand imipramine; cell membrane fractions; read-out: % Inhibition of Binding at Each Transporter or Receptor Target, SERT
Chain of serotonin (5-HT) transporter (SERT) (P31645 whole entry, species assumed): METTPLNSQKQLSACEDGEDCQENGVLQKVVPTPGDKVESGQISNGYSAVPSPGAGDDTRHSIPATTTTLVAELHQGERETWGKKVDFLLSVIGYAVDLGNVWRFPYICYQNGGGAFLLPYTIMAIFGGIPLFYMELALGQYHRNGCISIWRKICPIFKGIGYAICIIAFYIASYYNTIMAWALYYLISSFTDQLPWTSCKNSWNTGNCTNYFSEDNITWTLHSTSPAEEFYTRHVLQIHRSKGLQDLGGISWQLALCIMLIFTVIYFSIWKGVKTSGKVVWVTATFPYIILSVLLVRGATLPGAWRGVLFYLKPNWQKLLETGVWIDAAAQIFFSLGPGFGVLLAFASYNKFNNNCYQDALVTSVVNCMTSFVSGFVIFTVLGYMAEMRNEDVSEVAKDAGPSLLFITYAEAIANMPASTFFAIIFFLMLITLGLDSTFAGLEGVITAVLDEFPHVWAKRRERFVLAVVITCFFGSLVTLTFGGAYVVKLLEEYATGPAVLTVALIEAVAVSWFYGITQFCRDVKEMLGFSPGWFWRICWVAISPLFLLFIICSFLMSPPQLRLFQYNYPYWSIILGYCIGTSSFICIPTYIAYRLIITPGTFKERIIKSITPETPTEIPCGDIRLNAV
Procedure: as §1

[6] = biological target: D2L, dopamine receptor (D2L) (Homo sapiens, UniProt P14416); assay: Competitive radioligand binding assay, D2L; settings: compound at 10 μM; radioligand butaclamol; cell membrane fractions; read-out: % Inhibition of Binding at Each Transporter or Receptor Target, D2L
Chain of D2L, dopamine receptor (D2L) (P14416 whole entry): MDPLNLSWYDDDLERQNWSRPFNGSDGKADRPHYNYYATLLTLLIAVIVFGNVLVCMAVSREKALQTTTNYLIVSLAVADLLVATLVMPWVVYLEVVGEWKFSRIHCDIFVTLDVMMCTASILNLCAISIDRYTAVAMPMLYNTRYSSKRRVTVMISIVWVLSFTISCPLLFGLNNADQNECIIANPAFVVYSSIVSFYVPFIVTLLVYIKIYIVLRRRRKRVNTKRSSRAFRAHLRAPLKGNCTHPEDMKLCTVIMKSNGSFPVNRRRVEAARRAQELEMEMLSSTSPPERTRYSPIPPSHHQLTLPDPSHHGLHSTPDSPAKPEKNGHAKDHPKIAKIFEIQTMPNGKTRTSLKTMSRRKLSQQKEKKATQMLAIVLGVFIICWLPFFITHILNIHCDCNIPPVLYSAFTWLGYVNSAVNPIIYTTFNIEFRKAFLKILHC
Procedure: as §1

[7] = biological target: vesicular monoamine transporter (VMAT2) (Homo sapiens, UniProt Q05940); assay: Competitive radioligand binding assay, VMAT2; settings: compound at 10 μM; radioligand tetrabenazine; cell membrane fractions; read-out: % Inhibition of Binding at Each Transporter or Receptor Target, VMAT2
Chain of vesicular monoamine transporter (VMAT2) (Q05940 whole entry, species assumed): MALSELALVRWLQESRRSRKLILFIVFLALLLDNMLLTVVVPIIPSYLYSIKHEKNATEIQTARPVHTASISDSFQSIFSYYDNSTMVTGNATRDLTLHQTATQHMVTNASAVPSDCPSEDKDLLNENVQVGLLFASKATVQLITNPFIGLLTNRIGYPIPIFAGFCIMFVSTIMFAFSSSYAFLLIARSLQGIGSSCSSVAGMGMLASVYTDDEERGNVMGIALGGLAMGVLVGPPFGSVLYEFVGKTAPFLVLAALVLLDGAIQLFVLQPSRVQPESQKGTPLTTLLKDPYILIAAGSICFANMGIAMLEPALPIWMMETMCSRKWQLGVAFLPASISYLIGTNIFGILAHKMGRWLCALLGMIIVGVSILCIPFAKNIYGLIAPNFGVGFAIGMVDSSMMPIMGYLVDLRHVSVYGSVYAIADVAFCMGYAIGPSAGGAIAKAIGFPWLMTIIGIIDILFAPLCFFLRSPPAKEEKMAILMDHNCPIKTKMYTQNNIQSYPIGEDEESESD
Procedure: as §1

[8] = biological target: T2, alpha2C adrenergic receptor (Alpha2C) (Homo sapiens, UniProt P18825); assay: Competitive radioligand binding assay, Alpha2C; settings: compound at 10 μM; radioligand yohimbine; cell membrane fractions; read-out: % Inhibition of Binding at Each Transporter or Receptor Target, Alpha2C
T2 sequence (P18825 1-462): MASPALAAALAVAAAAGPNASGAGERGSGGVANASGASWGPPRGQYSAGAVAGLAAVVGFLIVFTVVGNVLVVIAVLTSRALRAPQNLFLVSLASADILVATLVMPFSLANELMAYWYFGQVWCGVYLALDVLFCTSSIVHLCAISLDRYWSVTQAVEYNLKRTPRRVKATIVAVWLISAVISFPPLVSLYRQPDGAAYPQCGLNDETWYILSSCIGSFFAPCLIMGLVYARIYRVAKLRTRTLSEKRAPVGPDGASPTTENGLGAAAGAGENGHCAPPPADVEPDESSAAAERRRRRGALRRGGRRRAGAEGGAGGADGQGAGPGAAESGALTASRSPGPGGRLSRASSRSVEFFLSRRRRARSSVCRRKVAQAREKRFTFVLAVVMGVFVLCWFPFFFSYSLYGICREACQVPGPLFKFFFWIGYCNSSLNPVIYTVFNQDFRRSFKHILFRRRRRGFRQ
Procedure: as §1

Structure (SMILES)	inhibition at 10 µM [1] [%]	inhibition at 10 µM [2] [%]	inhibition at 10 µM [3] [%]	inhibition at 10 µM [4] [%]	inhibition at 10 µM [5] [%]	inhibition at 10 µM [6] [%]	inhibition at 10 µM [7] [%]	inhibition at 10 µM [8] [%]
NC(=O)OC[C@H](N)Cc1ccccc1 [APC, (R)-2-amino-3-phenylpropyl carbamate]	16.5	81.4	6.2	18.7	4	-3.4	12	7.4
NC(=O)NC(=O)OC[C@H](N)Cc1ccccc1 [Compound 2, D-phenylalaninol allophanate]	28	80.6	2.7	11.8	3.4	-5.5	-1	52.1
